Data from patent publication US20240060986A1, “METHOD FOR SELECTING PEPTIDE […] ON PROTEIN CYTOTOXICITY” (priority 2022, published 2024).
No end group written: not given here.

Molecular target: T1, main protease (M^pro) of SARS-CoV2 virus (Severe acute respiratory syndrome coronavirus 2, UniProt P0DTD1)
T1 construct: 30 μl of 3CL Protease enzyme solution (0.05 ng/ul) was mixed with 10 μl of peptides; purchased BPS Bioscience 78042-1
Assay: biochemical

Row | Sequence | IC50 [µM]
1 | PVHPQMQTETGTAHC [Peptide M14] | 1200
2 | RQDLDYQRRRGAGISSTLVQSRK [Peptide M3] | 750
